From PubChem BioAssay (NCI)
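Five concentrations, 48 hours, 96-well plates. TGI denotes the concentration required for complete inhibition of growth.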

Tests used:
Assay in all cases: NCI tumour cell line growth inhibition, 48 h
[1] = tested on: U251 CNS
[2] = tested on: SNB-75 CNS
[3] = tested on: KM20L2 colon
[4] = tested on: SNB-78 CNS
[5] = tested on: SNB-19 CNS
[6] = tested on: SK-MEL-2 melanoma
[7] = tested on: HOP-92 NSCLC
[8] = tested on: SF-268 CNS
[9] = tested on: HOP-62 NSCLC
[10] = tested on: 786-0 renal
[11] = tested on: OVCAR-8 ovarian
[12] = tested on: CAKI-1 renal
[13] = tested on: RPMI-8226 leukemia
[14] = tested on: NCI-H23 lung
[15] = tested on: OVCAR-5 ovarian
[16] = tested on: UO-31 renal
[17] = tested on: A498 renal
[18] = tested on: DLD-1 colon
[19] = tested on: ACHN renal
[20] = tested on: CCRF-CEM leukemia
[21] = tested on: RXF 393 renal
[22] = tested on: LOX IMVI melanoma
[23] = tested on: MOLT-4 leukemia
[24] = tested on: HCT-116 colon
[25] = tested on: EKVX NSCLC
[26] = tested on: SK-OV-3 ovarian
[27] = tested on: M19-MEL melanoma
[28] = tested on: MALME-3M melanoma
[29] = tested on: A549 NSCLC
[30] = tested on: SK-MEL-5 melanoma
[31] = tested on: HCC-2998 colon
[32] = tested on: M14 melanoma
[33] = tested on: DMS 114 small cell lung
[34] = tested on: SF-539 CNS
[35] = tested on: IGROV1 ovarian
[36] = tested on: HCT-15 colon
[37] = tested on: NCI-H460 lung
[38] = tested on: UACC-257 melanoma
[39] = tested on: COLO 205 colon
[40] = tested on: UACC-62 melanoma
[41] = tested on: HL-60(TB) leukemia
[42] = tested on: LXFL 529 NSCLC
[43] = tested on: SW-620 colon
[44] = tested on: OVCAR-4 ovarian
[45] = tested on: NCI-H522 lung
[46] = tested on: K-562 leukemia
[47] = tested on: OVCAR-3 ovarian
[48] = tested on: KM12 colon
[49] = tested on: TK-10 renal
[50] = tested on: SK-MEL-28 melanoma
[51] = tested on: DU-145 prostate
[52] = tested on: MDA-MB-231 breast
[53] = tested on: MDA-N
[54] = tested on: MDA-MB-435
[55] = tested on: HS 578T breast
[56] = tested on: SN12C renal
[57] = tested on: T-47D breast
[58] = tested on: NCI-H226 lung
[59] = tested on: SR leukemia
[60] = tested on: PC-3 prostate
[61] = tested on: NCI/ADR-RES ovarian
[62] = tested on: HT29 colon
[63] = tested on: SF-295 CNS
[64] = tested on: MCF7 breast
[65] = tested on: DMS 273 small cell lung

Measured: TGI

N#Cc1ccccc1NC(=O)/C(=N\Nc1ccc([N+](=O)[O-])cc1)C1C(=O)NC(=O)NC1=O
74.8 µM: [7]
not listed: [51] | [52] | [53] | [54] | [55] | [56] | [57] | [58] | [59] | [60] | [61] | [62] | [63] | [64] | [65]
> 100 µM: all other assays above

CCCN=Cc1c(O)c(O)c(C(C)C)c2cc(C)c(-c3c(C)cc4c(C(C)C)c(O)c(O)c(C=NCCC)c4c3O)c(O)c12
> 40.1 µM: [38]
44.8 µM: [1]
> 32.3 µM: [39]
22.6 µM: [16]
47.8 µM: [58]
44.3 µM: [31]
> 21 µM: [32]
> 61.1 µM: [37]
62.2 µM: [60]
39.3 µM: [10]
71.1 µM: [64]
14.7 µM: [42]
20.1 µM: [27]
> 24.4 µM: [47]
7.44 µM: [6]
> 70.1 µM: [23]
13.4 µM: [4] | [20]
> 28.8 µM: [34]
> 24.9 µM: [62]
8.51 µM: [7]
93.6 µM: [56]
16.5 µM: [21]
5.73 µM: [45]
4.54 µM: [33]
> 23.6 µM: [41]
> 50.3 µM: [15]
> 32.6 µM: [48]
14.3 µM: [24]
> 81.9 µM: [14]
65.3 µM: [17]
> 82.7 µM: [46]
> 30.7 µM: [19]
> 30.8 µM: [26]
48.1 µM: [36]
> 78.3 µM: [50]
> 24.7 µM: [63]
49.1 µM: [30]
> 77.4 µM: [9]
24.5 µM: [22]
not listed: [18] | [28] | [40] | [65]
> 100 µM: all other assays above

COC1=C(OC)C(O)(c2ccccc2)C1=O (stereo not drawn)
85.7 µM: [49]
> 100 µM: [1] | [4] | [5] | [7] | [8] | [9] | [11] | [14] | [15] | [16] | [65] | [17] | [19] | [20] | [21] | [23] | [25] | [26] | [27] | [29] | [32] | [35] | [37] | [38] | [41] | [59] | [45] | [48] | [62] | [50] | [63]
